Data published in patent US4622336A, “3,3-dialkyl-and 3,3-alkylene-indoline derivatives, processes for their production and pharmaceutical compositions comprising them” (Sandoz Ltd., priority 1982, dated 1986).

What was measured:
[1] = tested on: arthritis pain in the rat; assay: arthritis pain test in the rat (Test A); format: in vivo; conditions: po
Experimental: (A) the arthritis pain test in the rat [based on the method of A. W. Pircio et al., Eur. J. Pharmacol., 31, 207-215 (1975)] at dosages of from 3 to 50 mg/kg p.o.; and […]

[2] = tested on: inflamed rat-hind-paw; assay: Randall-Selitto test on the inflamed rat-hind-paw (Test B); format: in vivo; conditions: po
Experimental: (B) the Randall-Selitto test on the inflamed rat-hind-paw [Arch. Int. Pharmacodyn. 61, 409-419 (1957)] at dosages of from 20 to 200 mg/kg p.o..

For `CC(=O)Nc1ccc(O)cc1` [III, Paracetamol, reference compound], which ED50 [1] is on record?
The ED50 was 174 mg/kg.

How did the ED50 [1] turn out when `CCOc1ccc2c(c1)C(C)(C)CN2` [I, 3,3-Dimethyl-5-ethoxy-indoline] was run?
The ED50 was 18 mg/kg.

What about the ED50 [2] of the same compound?
The ED50 was 133 mg/kg.

Which results are given for `CCOc1ccc2c(c1)NCC2(C)C` [II, 3,3-Dimethyl-6-ethoxy-indoline]?
ED50 [1]: 7 mg/kg; ED50 [2]: 78 mg/kg
